Measured values as given in ChEMBL document CHEMBL1127824, “6,6-Disubstituted Hex-5-enoic acid derivatives as combined thromboxane A2 receptor antagonists and synthetase inhibitors” (J Med Chem, 1994).
Several values for one entry are separate records, joined by “and”; a condition that tells them apart may be missing. Identical values can stand only once.

Legend:
Homo sapiens = organism: Homo sapiens; experiment: tissue or blood; assay type: functional, organism-based; settings: Plasma
Description: Inhibition of collagen-induced platelet aggregation in human platelet-rich plasma.

Thromboxane A2 receptor = target: T1, Thromboxane A2 receptor (Homo sapiens, UniProt P21731)
T1 sequence (P21731 whole entry): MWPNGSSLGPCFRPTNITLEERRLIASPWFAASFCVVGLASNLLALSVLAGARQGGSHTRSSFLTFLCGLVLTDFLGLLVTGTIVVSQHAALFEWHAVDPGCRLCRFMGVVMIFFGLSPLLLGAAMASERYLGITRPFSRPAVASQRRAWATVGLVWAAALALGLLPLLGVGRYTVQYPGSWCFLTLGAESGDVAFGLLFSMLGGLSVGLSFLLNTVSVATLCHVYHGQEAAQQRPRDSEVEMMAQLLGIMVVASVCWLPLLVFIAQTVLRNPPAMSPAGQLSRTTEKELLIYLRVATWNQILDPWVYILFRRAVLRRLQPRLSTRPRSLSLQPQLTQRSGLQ

Thromboxane-A synthase = target: T2, Thromboxane-A synthase (Homo sapiens, UniProt P24557)
T2 sequence (P24557 whole entry): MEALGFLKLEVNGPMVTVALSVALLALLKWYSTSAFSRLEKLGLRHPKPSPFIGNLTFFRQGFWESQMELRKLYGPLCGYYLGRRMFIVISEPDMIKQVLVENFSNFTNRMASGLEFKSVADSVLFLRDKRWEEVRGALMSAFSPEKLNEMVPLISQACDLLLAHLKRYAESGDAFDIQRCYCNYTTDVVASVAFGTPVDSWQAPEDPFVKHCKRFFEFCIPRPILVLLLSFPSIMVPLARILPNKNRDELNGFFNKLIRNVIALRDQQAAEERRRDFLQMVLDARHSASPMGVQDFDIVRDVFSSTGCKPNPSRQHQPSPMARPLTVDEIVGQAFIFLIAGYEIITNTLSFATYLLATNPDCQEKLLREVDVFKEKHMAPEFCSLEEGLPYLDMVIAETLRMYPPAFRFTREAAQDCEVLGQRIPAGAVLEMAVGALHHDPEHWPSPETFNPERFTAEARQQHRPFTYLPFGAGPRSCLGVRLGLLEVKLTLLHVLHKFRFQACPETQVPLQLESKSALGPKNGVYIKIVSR
Description: Inhibition test of thromboxane A2 synthetase in human gel-filtered platelets.

Row | Compound | EC50 (Homo sapiens) [µM] | IC50 (Thromboxane A2 receptor) | IC50 (Thromboxane-A synthase)
1 | O=C(O)CCCCO/N=C(/c1cccnc1)c1cccc(C(F)(F)F)c1 [RIDOGREL] | 16 | 1700 nM and 5200 nM | 4 nM and 8 nM
2 | CC(C)N(CCc1ccc(/C(=C\CCCC(=O)O)c2cccnc2)cc1)S(=O)(=O)c1ccc(Cl)cc1 | > 100 | 51 nM | 25 nM
3 | O=C(O)CCC/C=C(\CCCNS(=O)(=O)c1ccc(Cl)cc1)c1cccnc1 | 47 | 330 nM | 24 nM
4 | O=C(O)CCC/C=C(/c1cccnc1)c1ccc2c(c1)CC(NS(=O)(=O)c1ccc(F)cc1)C2 (stereo not given) | 0.56 | 9 nM | 1 nM
5 | O=C(O)CCC/C=C(\c1ccc(CCNS(=O)(=O)Cc2ccccc2)cc1)c1cccnc1 | 5.3 | 260 nM | 5 nM
6 | COc1ccc(S(=O)(=O)NCCc2ccc(/C(=C\CCCC(=O)O)c3cccnc3)cc2)cc1 | 10 | 52 nM | 5 nM
7 | CN(C)C(=O)CCC/C=C(\c1ccc(CCNS(=O)(=O)c2ccc(Cl)cc2)cc1)c1cccnc1 | 40 | 300 nM | 44 nM
8 | O=C(O)CCC/C=C(\c1ccc(CCNS(=O)(=O)c2ccc(Cl)cc2)cc1)c1cccnc1 [SAMIXOGREL] | 1 | 19 nM | 4 nM
9 | O=C(O)c1ccc(/C=C(\c2ccc(CCNS(=O)(=O)c3ccc(Cl)cc3)cc2)c2cccnc2)cc1 | 52 | 130 nM | 27 nM
10 | Cc1ccc(S(=O)(=O)NCCc2ccc(/C(=C\C(=O)NCC(=O)O)c3cccnc3)cc2)cc1 | > 100 | 3000 nM | 15000 nM
11 | O=S(=O)(NCCc1ccc(/C(=C\CCCc2nnn[nH]2)c2cccnc2)cc1)c1ccc(Cl)cc1 | 9.5 | 12 nM | 21 nM
12 | O=C(O)CC/C=C(\c1ccc(CCNS(=O)(=O)c2ccc(Cl)cc2)cc1)c1cccnc1 | 36 | 42 nM | 21 nM
13 | Cn1c(CCNS(=O)(=O)c2ccc(F)cc2)ccc1/C(=C\CCCC(=O)O)c1cccnc1 | 1.1 | 230 nM | 4 nM
14 | O=C(O)CCC/C=C(/c1cccnc1)c1cccc(CNS(=O)(=O)c2ccc(Cl)cc2)c1 | 3.8 | 21 nM | 5 nM
15 | Cc1ccc(S(=O)(=O)NCCc2ccc(/C(=C\C(=O)O)c3cccnc3)cc2)cc1 | > 100 | 1200 nM | 2700 nM
16 | O=C(O)CCCC/C=C(\c1ccc(CCNS(=O)(=O)c2ccc(Cl)cc2)cc1)c1cccnc1 | 1.5 | 19 nM | 24 nM
17 | O=C(O)CCCC(c1ccc(CCNS(=O)(=O)c2ccc(Cl)cc2)cc1)c1cccnc1 (stereo not given) | 12 | 74 nM | 98 nM
18 | O=C(O)CCCCC(c1ccc(CCNS(=O)(=O)c2ccc(Cl)cc2)cc1)c1cccnc1 (stereo not given) | 1.2 | 84 nM | 2 nM
19 | O=C(O)CCC/C=C(\c1ccc(CCN(Cc2ccccc2)S(=O)(=O)c2ccc(Cl)cc2)cc1)c1cccnc1 | 11 | 62 nM | 43 nM
20 | CC(C)(C)OC(=O)CCC/C=C(\c1ccc(CCNS(=O)(=O)c2ccc(Cl)cc2)cc1)c1cccnc1 | 60 | 200 nM | 150 nM
21 | CNC(=O)CCC/C=C(\c1ccc(CCNS(=O)(=O)c2ccc(Cl)cc2)cc1)c1cccnc1 | 24 | 170 nM | 250 nM
22 | O=C(O)CCC/C=C(\c1ccc(CNS(=O)(=O)c2ccc(Cl)cc2)cc1)c1cccnc1 | 5 | 55 nM | 7 nM
23 | O=C(O)CCC/C=C(\c1ccc(CCNC(=O)Cc2ccccc2)cc1)c1cccnc1 | 9.5 | 1200 nM | 21 nM
24 | COc1ccc(S(=O)(=O)NCCc2ccc(/C(=C\CCCC(=O)O)c3cccnc3)cc2)cc1OC | 16 | 340 nM | 5 nM
25 | O=C(O)CCC/C=C(/c1ccc(CCNS(=O)(=O)c2ccc(Cl)cc2)cc1)c1cccnc1 | 43 | 380 nM | 490 nM
